{"source": "patent US5545638A", "about": "“Method of treating gastrointestinal motility disorders” (Novo Nordisk A/S, priority 1995, dated 1996)", "molecular_target": "muscarinic receptors", "experiment": "Inhibition of ^3 H-oxotremorine-M binding to muscarinic receptors", "set-up": "species or system rat (male Sprague-Dawley, cerebral cortex)", "details": "3 nM ^3 H-oxotremorine-M, rat cerebral cortical membranes, 15 min, 25° C., pH 7.4; concentration to inhibit specific binding 50%; read-out: Inhibition of ^3 H-Oxo", "protocol": "The affinity of the compounds for the muscarinic receptors was determined using the non-selective agonist ligand, ^3 H-oxotremorine-M. Birdsdall N. J. M., Hulme E. C., and Burgen A. S. V., \"The Character of Muscarinic Receptors in Different Regions of the Rat Brain\", 207 Proc. Roy. Soc. 1 (London, Series B, 1980). Each compound was tested to determine the affinity of the compound for the muscarinic receptors using the following procedure.\nFor each in vitro binding, male Sprague-Dawley (Harlan Sprague-Dawley, Indianapolis, Ind.) rats weighing from about 100 to about 150 grams each were sacrificed by decapitation. The brains were quickly removed and the cerebral cortex were dissected from the brain. The cerebral cortex tissue was homogenized in 10 volumes of 0.32M sucrose and homogenized for about 10 minutes at about 1000×g. […]\nThe aforementioned homogenates mixture was incubated for about 15 minutes at about 25° C. and then the homogenates were filtered through glass filters (Whatman, GF/C) with vacuum. The filters were washed 3 times with about 2 ml of cold tris-Cl buffer, and placed in scintillation vials containing about 10 ml of scintillation fluid (Ready Protein+, Beckman, Fullerton, Calif.). Radioactivity trapped on the filters was determined by liquid scintillation spectrometry. Nonspecific binding was determined using 1 μM atropine. […]", "note": "Counter-ions that a name gives are not always drawn."}
{"smiles": "C=CCCCCOc1nsnc1C1=CCCN(C)C1", "note": "[Compound 33, 3-(3-(5-Hexenyloxy)-1,2,5-thiadiazol-4-yl)-1,2,5,6-tetrahydro-1-methylpyridine oxalate]", "values": [{"measurement": "IC50", "result": 2.7, "unit": "nM"}]}
